Results from patent US10041042B2, “Methods for production and use of substance-loaded erythrocytes (S-IEs) for observation and treatment of microvascular hemodynamics” (Novadaq Technologies ULC, priority 2008, dated 2018).

Key:
Assay type in all cases: physicochemical
[1] = Near-infrared fluorescence micrographs (40×) of ICG-loaded vs ICG-stained erythrocytes: cell brightness; conditions: FIG. 1C, plasma exposed 20 min to stained erythrocytes
Procedure: FIGS. 1A-1D are near-infrared fluorescence micrographs at 40× magnification of erythrocytes, comparing the brightness of cells “stained” with ICG (A—stained in 1 mM ICG solution for 30 min. and B—stained in 2 mM ICG solution for 60 min. to cells into which ICG has been loaded through pores in their membranes; C—stained plasma resulting from exposure for 20 min. to the stained erythrocytes from A; D—dialysed in 1 mM ICG solution for 30 min.);
(1) Although many fluorescent dyes, such as ICG dye, do bind to the erythrocyte outer cell membrane, binding is weak and non-covalent, and regardless of the dye concentration and conjugation time, the maximum fluorescence brightness that can be achieved is considerably less than optimum (see FIG. 1). […] (2) Exposure to fluorescence excitation energy for diagnostic purposes must not exceed the safe maximum permissible exposure level for the sensory retina. Since ICG dye is a fairly weak emitter of fluorescence, care must be taken to ensure that the amount of ICG present post-loading is optimal, resulting in maximum fluorescence intensity possible at a given safe excitation energy level. […] Moreover, since ICG is subject to concentration fluorescence quenching—even when inside erythrocytes—the amount of loaded dye must be controlled: too much or too little will not produce the maximum fluorescence. […]

[2] = Infrared fluorescence image of thick and thin layers of ICG with and without Ag colloid; conditions: thick (1 cm) layers, 0.250 mg/mL ICG in HAS with or without 4.684 mg/mL Ag colloid, 805 nm
Procedure: FIG. 7 is an infrared fluorescence image comparing the fluorescence enhancement effect of silver colloid in 0.05 mg/mL ICG solutions; samples in the left-hand side contain no colloid, while those in the right-hand side contain colloid; samples at the top are in 1-cm thick tubes, while those at the bottom are 100 microns thick;
FIG. 8 is an infrared fluorescence image of the samples of FIG. 7 showing reflection of the 805-nm wavelength light used to stimulate fluorescence; no barrier filter was placed in front of the CCD camera in this case;
The disparity between fluorescence enhancement reported in the experiments made using glass surfaces on which the dye/colloid conjugates were bound with amino groups (30-fold) and those observed in the in vivo angiograms (2- to 3-fold) apparently was due to the fact that the colloid fluorescence-enhancement effect is manifest in very thin layers of the dye/suspension and suppressed in thick ones. In this figure, the thick samples are at the top, and the thin ones at the bottom; 0.250 mg/mL ICG in HAS is on the left, and 0.250 mg/mL ICG in HAS with 4.684 mg/mL Ag colloid on the right. The array of samples was uniformly illuminated with 805-nm wavelength light, and the ICG fluorescence image was captured. […]

[3] = Optimum ICG concentration for fluorescence (concentration quenching)
Description: (1) Although many fluorescent dyes, such as ICG dye, do bind to the erythrocyte outer cell membrane, binding is weak and non-covalent, and regardless of the dye concentration and conjugation time, the maximum fluorescence brightness that can be achieved is considerably less than optimum (see FIG. 1). […] (2) Exposure to fluorescence excitation energy for diagnostic purposes must not exceed the safe maximum permissible exposure level for the sensory retina. Since ICG dye is a fairly weak emitter of fluorescence, care must be taken to ensure that the amount of ICG present post-loading is optimal, resulting in maximum fluorescence intensity possible at a given safe excitation energy level. […] Moreover, since ICG is subject to concentration fluorescence quenching—even when inside erythrocytes—the amount of loaded dye must be controlled: too much or too little will not produce the maximum fluorescence. […] Achieving optimal dye concentration is accomplished by controlling the amount of dye in the solution during dialysis once the pores in the cell membranes open; experimentation has determined the optimum amount to be approximately 1.0 μmol/mL dialysed cell-solution (see FIG. 2). […] This also has the advantage of preventing plasma dye-staining and the associated reduction of contrast between cell fluorescence and background brightness once the cells are re-injected. […]

CC1(C)C(/C=C/C=C/C=C/C=C2\N(CCCCS(=O)(=O)O)c3ccc4ccccc4c3C2(C)C)=[N+](CCCCS(=O)(=O)[O-])c2ccc3ccccc3c21 [ICG, indocyanine green]
affinity of ICG dye molecules: plasma proteins vs erythrocyte outer membrane [1]: greater for plasma proteins than for the erythrocyte outer membrane
fluorescence brightness, thick samples [2]: significantly brighter
optimum concentration of dye molecules in the loaded cells; above that level fluorescence quenching occurs ([3]; ICG inserted into S-IEs): about 0.03 mg/mL
optimum amount of dye in the solution during dialysis ([3]; for maximum fluorescence of loaded erythrocytes): approximately 1.0 μmol/mL dialysed cell-solution
